ChEMBL document CHEMBL6083180, “Design, synthesis, and biological activity of D-bishomo-1α,25-dihydroxyvitamin D3 analogs and their crystal structures with the vitamin D nuclear receptor” (Eur J Med Chem, 2024)
Activity calls are given as the source filed them. No cut-off for these calls is given here.

Assays:
ROS 17/2.8 = experiment: Induction of transcriptional activity in rat ROS 17/2.8 cells transfected with CYP24 incubated for 16 hrs by Luciferase reporter gene assay; format: functional, cell-based
HCC4006 [1] = experiment: Antiproliferative activity against human HCC4006 cells incubated for 72 hrs by SRB assay; format: functional, cell-based; conditions: HCC4006, 72 h
MCF7 = experiment: Antiproliferative activity against human MCF7 cells at 100 nM incubated for 72 hrs by SRB assay relative to control; format: functional
MDA-MB-231 = experiment: Antiproliferative activity against human MDA-MB-231 cells incubated for 72 hrs by SRB assay; format: functional, cell-based
CAL-51 = experiment: Antiproliferative activity against human CAL-51 cells incubated for 72 hrs by SRB assay; format: functional, cell-based
MV4-11 [2] = experiment: Antiproliferative activity against human MV4-11 cells at 100 nM incubated for 72 hrs by MTT assay relative to control; format: functional
MV4-11 [3] = experiment: Antiproliferative activity against human MV4-11 cells at 1000 nM incubated for 72 hrs by MTT assay relative to control; format: functional
HL-60 [4] = experiment: Antiproliferative activity against human HL-60 cells at 1000 nM incubated for 72 hrs by MTT assay relative to control; format: functional
HL-60 [5] = experiment: Antiproliferative activity against human HL-60 cells at 100 nM incubated for 72 hrs by MTT assay relative to control; format: functional
MV4-11 [6] = experiment: Effect on cell cycle distribution in human MV4-11 cells assessed as accumulation at G0/G1 phase at 1000 nM incubated for 72 hrs; format: functional, cell-based
MV4-11 [7] = experiment: Effect on cell cycle distribution in human MV4-11 cells assessed as decrease in accumulation at G2/M phase at 10 to 1000 nM incubated for 72 hrs; format: functional, cell-based; conditions: dose 10-1000 nM
MV4-11 [8] = experiment: Upregulation of CD11b expression in human MV4-11 cells at 10 nM incubated for 72 hrs; format: functional, cell-based
MV4-11 [9] = experiment: Upregulation of CD14 expression in human MV4-11 cells at 10 nM incubated for 72 hrs; format: functional, cell-based
Rattus norvegicus [10] = experiment: Induction of calcium mobilization in bone of vitamin D-deficient Sprague-Dawley rat at 2340 pmol, ip administered daily for 4 days; format: functional, organism-based; conditions: Bone element, time 4.0 day
Rattus norvegicus [11] = experiment: Induction of calcium transport in intestine of vitamin D-deficient Sprague-Dawley rat at 780 pmol, ip administered daily for 4 days; format: functional, organism-based; conditions: time 4.0 day
MV4-11 [12] = experiment: Antiproliferative activity against human MV4-11 cells at 1 nM incubated for 72 hrs by MTT assay relative to control; format: functional
MV4-11 [13] = experiment: Antiproliferative activity against human MV4-11 cells at 10 nM incubated for 72 hrs by MTT assay relative to control; format: functional
MV4-11 [14] = experiment: Effect on cell cycle distribution in human MV4-11 cells assessed as accumulation at G0/G1 phase at 10 nM incubated for 72 hrs; format: functional, cell-based
MV4-11 [15] = experiment: Effect on cell cycle distribution in human MV4-11 cells assessed as accumulation at G0/G1 phase at 100 nM incubated for 72 hrs; format: functional, cell-based
Rattus norvegicus [16] = experiment: Induction of calcium mobilization in bone of vitamin D-deficient Sprague-Dawley rat at 780 pmol, ip administered daily for 4 days; format: functional, organism-based; conditions: Bone element, time 4.0 day
HCC4006 [17] = experiment: Antiproliferative activity against human HCC4006 cells assessed as inhibition of cell proliferation at 10 nM incubated for 72 hrs by SRB assay relative to control; format: functional
HCC4006 [18] = experiment: Antiproliferative activity against human HCC4006 cells assessed as inhibition of cell proliferation at 1 nM incubated for 72 hrs by SRB assay relative to control; format: functional
Rattus norvegicus [19] = experiment: Induction of calcium transport in intestine of vitamin D-deficient Sprague-Dawley rat at 260 pmol, ip administered daily for 4 days; format: functional, organism-based; conditions: time 4.0 day
MCF-10A = experiment: Antiproliferative activity against human MCF-10A cells incubated for 72 hrs by SRB assay; format: toxicity, cell-based
NCI-H1650 = experiment: Antiproliferative activity against human NCI-H1650 cells harboring EGFR mutation incubated for 72 hrs by SRB assay; format: functional, cell-based
NCI-H1975 = experiment: Antiproliferative activity against human NCI-H1975 cells harboring EGFR mutation incubated for 72 hrs by SRB assay; format: functional, cell-based
HCC4006 [20] = experiment: Antiproliferative activity against human HCC4006 cells assessed as inhibition of cell proliferation at 100 nM incubated for 72 hrs by SRB assay relative to control; format: functional
HCC4006 [21] = experiment: Antiproliferative activity against human HCC4006 cells assessed as inhibition of cell proliferation at 1000 nM incubated for 72 hrs by SRB assay relative to control; format: functional
[22] = Antiproliferative activity against human LUDLU-1 cells at 100 nM incubated for 72 hrs by SRB assay relative to control; format: functional
NCI-H226 [23] = experiment: Antiproliferative activity against human NCI-H226 cells at 100 nM incubated for 72 hrs by SRB assay relative to control; format: functional
[24] = Antiproliferative activity against human LUDLU-1 cells at 1000 nM incubated for 72 hrs by SRB assay relative to control; format: functional
NCI-H226 [25] = experiment: Antiproliferative activity against human NCI-H226 cells at 1000 nM incubated for 72 hrs by SRB assay relative to control; format: functional

Structure (SMILES)	Activity (ROS 17/2.8)	IC50 (HCC4006 [1]) [nM]	inhibition at 0.1 µM (MCF7) [%]	Activity (MDA-MB-231)	Activity (CAL-51)	inhibition at 0.1 µM (MV4-11 [2]) [%]	inhibition at 1 µM (MV4-11 [3]) [%]	inhibition at 1 µM (HL-60 [4]) [%]	inhibition at 0.1 µM (HL-60 [5]) [%]	Activity (MV4-11 [6])	Activity (MV4-11 [7])	Activity (MV4-11 [8])	Activity (MV4-11 [9])	Activity (Rattus norvegicus [10])	Activity (Rattus norvegicus [11])	Activity (MV4-11 [14])	Activity (MV4-11 [15])	Activity (Rattus norvegicus [16])	inhibition at 0.01 µM (HCC4006 [17]) [%]	inhibition at 0.001 µM (HCC4006 [18]) [%]	also measured
CC1[C@H](O)CC(=C/C=C2\CCC[C@@]3(C)[C@H]2CCCC[C@H]3[C@H](C)CCCC(C)(C)O)C[C@H]1O (some centres undefined)	Not active; Exhibited Equal Or Slightly Less Potency Than Calcitriol; Exhibited Least Activity	82.6	29	inactive	inactive	39.7	29.7	43.8	20.5	Active	Active	inactive	inactive	inactive	inactive	–	–	–	–	–	–
C=C1/C(=C\C=C2/CCC[C@@]3(C)[C@H]2CCCC[C@H]3[C@H](C)CCCC(C)(C)O)C[C@@H](O)C[C@@H]1O	Active; Exhibited Higher Potency Than Calcitriol	49.6	37.9	inactive	inactive	44.2	42.8	39.7	17.1	–	Active	Active	Active	–	inactive	Active	Active	inactive	–	–	inhibition at 0.001 µM (MV4-11 [12]): 23.7%; inhibition at 0.01 µM (MV4-11 [13]): 41%
C[C@H](CCCC(C)(C)O)[C@@H]1CCCC[C@H]2/C(=C/C=C3C[C@@H](O)C(=CCCO)[C@H](O)C3)CCC[C@@]21C	Active; Exhibited Higher Potency Than Calcitriol	–	21.3	inactive	inactive	25.5	32	27.5	22.1	–	Active	Active	Active	–	–	Active	–	Active; Most Potent Compound And Equal In Activity To Calcitriol	39.1	37.5	Activity (Rattus norvegicus [19]): Active; Most Potent Compound And Equal In Activity To Calcitriol
C[C@H](CCCC(C)(C)O)[C@@H]1CCCC[C@H]2/C(=C/C=C3C[C@@H](O)C[C@H](O)C3)CCC[C@@]21C	Active; Exhibited Equal Or Slightly Less Potency Than Calcitriol	45.2	30.8	inactive	inactive	25.3	31.2	24.2	17.9	Active	Active	Active	Active; Exhibited Highest Expression	inactive	inactive	Active	Active	–	–	–	Activity (MCF-10A): Non-toxic
C=C1[C@H](O)CC(=C/C=C2\CCC[C@@]3(C)[C@H]2CCCC[C@H]3[C@H](C)CCCC(C)(C)O)C[C@H]1O	Active; Exhibited Higher Potency Than Calcitriol	27.7	31	inactive	inactive	32.6	50	47.6	35	–	Active	Active; Exhibited Highest Expression	Active	Active; Second Most Potent Compound But Exhibited Less Activity Than Calcitriol	–	–	Active	–	44.8	39.1	Activity (NCI-H1650): Active; Maintained Its Activity At Constant Level In Tested Concentration But Without Statistical Significance For Lowest Concentrations; Activity (NCI-H1975): Active; Maintained Its Activity At Constant Level In Tested Concentration But Without Statistical Significance For Lowest Concentrations; Activity (MCF-10A): Non-toxic; Activity (Rattus norvegicus [19]): Active; Second Most Potent Compound But Exhibited Less Activity Than Calcitriol
C=C1/C(=C\C=C2/CCC[C@]3(C)[C@@H]([C@H](C)CCCC(C)(C)O)CC[C@@H]23)C[C@@H](O)C[C@@H]1O [CALCITRIOL]	–	–	–	–	–	39.8	48.8	54.9	35.9	–	–	–	–	–	–	–	–	–	30.4	10.1	inhibition at 0.1 µM (HCC4006 [20]): 14%; inhibition at 1 µM (HCC4006 [21]): 17%; inhibition at 0.1 µM [22]: 15%; inhibition at 0.1 µM (NCI-H226 [23]): 15%; inhibition at 1 µM [24]: 10%; inhibition at 1 µM (NCI-H226 [25]): 10%
